Marks after values point to notes of the source that are not given here.

Data on four molecules can be found in patent US7192768B2, “Synchronization of the cytoplasmatic and the nuclear maturation of oocytes in vitro” (Novo Nordisk A/S, priority 2001, dated 2007).

Test [1] relates to cumulus-enclosed oocytes (CEO). Kind of test: FSH induced resumption of meiosis and cumulus expansion of hypoxanthine arrested mouse oocytes cultured in vitro (22-hydroxycholesterol). Type of test: cell-based. Further details: Cumulus expansion: key to the marks not given beside the values. As for the experimental part:
Immature female mice (B6D2-F1 strain C57B1/2J) were kept under controlled light and temperature conditions with free access to food and water. Ovarian stimulation was performed when the mice weighed 10–16 grams and consisted of an intra-peritoneal injection of Gonadoplex (Leo, Copenhagen, Denmark) containing 7.5 U/mouse. The animals were killed by cervical dislocation 44–48 h later. The media used for the culture of oocytes consisted of α-Minimum Essential Medium (α-MEM), with Earles Balanced Salt Solution (EBSS), containing 4 mM hypoxanthine, 3 mg/ml bovine serum albumin, 0.23 mM pyruvate, 2 mM glutamine (all Sigma, U.S.A) and 100 IU/ml penicillin, 100 ug/ml Streptomycin. This medium was termed “HX-medium”. A media similar to the above but without HX are termed “maturation-medium”. Oocytes were isolated in HX-medium under a stereo microscope by manual rupture of follicles using a pair of 5.5-gauge needles. Spherical oocytes with intact cumulus cells connection and displaying germinal vesicle were categorized as cumulus-enclosed oocytes (CEO). Oocytes were rinsed 3 times in fresh HX-medium. Prior to each experimental set-up, all oocytes from 10–15 mice were pooled. Only oocytes with a germinal vesicle present were used and distributed in separate wells of a 4-well dish (Nuncoln, Denmark) containing 1 ml of HX-medium. Each well contained 20–30 oocytes and was cultured at 37° C. in 100% humidity in air with 5% CO2. Each experiment was repeated at least 4 times. At the end of the culture period (i.e 24 h), oocytes with GV or GVBD, or polar body (PB) were counted using an inverted microscope with differential interference contrast equipment (Leica, German). […]
Graduation of cumulus expansion: 0: No expansion, compact cumulus layer surrounding the oocyte; +: A slight cumulus expansion, the most peripheral cumulus cell looks a little fluffy; ++: good expansion of cumulus cell without a spherical cloud like expansion; +++: full cumulus expansion with a fluffy cloud like expansion with extended distance between the somatic cells.

Test [2] has as its system cultured mouse oocytes. The following applies: WO 98/28323; cited from earlier work.
Test [3] concerns cumulus enclosed mouse oocytes. Put plainly: FSH induced resumption of meiosis of mouse oocytes cultured in vitro (dbc-AMP control medium). Type of test: cell-based. To be noted: for % GVBD / % PB (PB/GVBD): 22-24 h. How it is done:
Immature female mice (B6D2-F1 strain C57B1/2J) were kept under controlled light and temperature conditions with free access to food and water. Ovarian stimulation was performed when the mice weighed 10–16 grams and consisted of an intra-peritoneal injection of Gonadoplex (Leo, Copenhagen, Denmark) containing 7.5 U/mouse. The animals were killed by cervical dislocation 44–48 h later. The media used for the culture of oocytes consisted of α-Minimum Essential Medium (α-MEM), with Earles Balanced Salt Solution (EBSS), 200 μM dibuturyl-cyclic-adenosine-mono-phosphate (dbc-AMP), 3 mg/ml Bovine Serum Albumin, 0,23 mM pyruvate, 2 mM glutamine, 100 IU/ml penicillin and 100 mg/ml streptomycin (i.e. control medium). The ovaries were recovered and oocytes isolated from the ovaries by puncturing individual follicles using a 25 gauge needle. The oocytes were washed 3 times in control medium before the start of each experiment. Cumulus enclosed oocytes were cultured separately in 4-well dishes (Nuncleon, Roskilde, Denmark), 0.4 ml medium in each well containing control medium or medium supplemented with ketoconazole in a 100% humidified atmosphere of 5% CO2 with 95% air at 37° C. The culture period was 22–24 h. By the end of the culture period, germinal vesicle breakdown (GVBD) was scored by examining the oocyte in an inverted microscope. The percentage of oocytes with GVBD per total number of oocytes (% GVBD) was calculated.

Test [4] deals with cumulus-enclosed oocytes (CEO). Kind of test: FSH induced resumption of meiosis of hypoxanthine arrested mouse oocytes cultured in vitro (ketoconazole). The following applies: HX-medium; for % GVBD / % PB (PB/GVBD): 24 h. The format is cell-based. As for the experimental part: Oocytes were obtained from immature mice (Kunming white mouse) weighing 14–16 g that were kept under controlled light and temperature conditions with free access to water. The mice received an intra peritoneal injection of 0.1 ml pregnant mare's serum gonadotrophin (PMSG, Sigma, New York, U.S.A) containing 10 IU PMSG. Forty-six hours later, the animals were killed by cervical dislocation. The ovaries were dissected out and placed in M199 culture medium (GIBCO, U.S.A) containing 4 mM hypoxanthine, 3 mg/ml bovine serum albumin, 0.23 mM pyruvate, 2 mM glutamine (all Sigma, U.S.A) and 100 IU/ml penicillin, 100 ug/ml Streptomycin. This medium was termed “HX-medium”. A media similar to the above but without HX are termed “maturation-medium”. Oocytes were isolated in HX-medium under a stereo microscope by manual rupture of follicles using a pair of 5.5-gauge needles. Spherical oocytes with intact cumulus cells connection and displaying germinal vesicle were categorized as cumulus-enclosed oocytes (CEO). Oocytes were rinsed 3 times in fresh HX-medium. Prior to each experimental set-up, all oocytes from 10–15 mice were pooled. Only oocytes with a germinal vesicle present were used and distributed in separate wells of a 4-well dish (Nuncoln, Denmark) containing 1 ml of HX-medium. Each well contained 20–30 oocytes and was cultured at 37° C. in 1000% humidity in air with 5% CO2. Each experiment was repeated at least 4 times. At the end of the culture period (i.e 24 h), oocytes with GV or GVBD, or polar body (PB) were counted using an inverted microscope with differential interference contrast equipment (Leica, German). The percentage of oocytes with GVBD per total number of oocytes (% GVBD) and the percentage of oocytes with PB formation per total number of oocytes (% PB) were calculated.

Test [5] relates to cumulus enclosed oocytes. The following applies: AY added to cumulus enclosed oocytes; cited from earlier work.
Test [6] concerns human oocytes. The following applies: EGF 2 ng/ml, 30 h culture; cited from earlier work.
[7] abbreviates: 22-OH-cholesterole 1 μg/ml + FSH 75 IU/L, with fetal calf serum.
Where [8] appears, read: 22-OH-cholesterole 1 μg/ml + FSH 75 IU/L, without fetal calf serum.
[9] abbreviates: 22-OH-cholesterole 5 μg/ml + FSH 75 IU/L, without fetal calf serum.
The mark [10] stands for this setting: 22-OH-cholesterole 10 μg/ml + FSH 75 IU/L, with fetal calf serum.
The mark [11] stands for this setting: 22-OH-cholesterole 10 μg/ml + FSH 75 IU/L, without fetal calf serum.
Where [12] appears, read: 22-OH-cholesterole 25 μg/ml + FSH 75 IU/L, with fetal calf serum.
Setting [13] is: 22-OH-cholesterole 25 μg/ml + FSH 75 IU/L, without fetal calf serum.
Where [14] appears, read: ketoconazole 5 μM in medium with FSH 75 IU/L.
Setting [15] is: ketoconazole 10 μM in medium with FSH 75 IU/L.
The mark [16] stands for this setting: ketoconazole 20 μM in medium with FSH 75 IU/L.
Where [17] appears, read: ketoconazole 0.1 μM + FSH 50 IU/L.
The mark [18] stands for this setting: ketoconazole 1 μM + FSH 50 IU/L.
The mark [19] stands for this setting: ketoconazole 10 μM + FSH 50 IU/L.
Setting [20] is: ketoconazole 100 μM + FSH 50 IU/L.
Where [21] appears, read: ketoconazole 1000 μM + FSH 50 IU/L.

Take `CC(C)CCC(O)[C@@H](C)[C@H]1CC[C@H]2[C@@H]3CC=C4C[C@@H](O)CC[C@]4(C)[C@H]3CC[C@]12C` (some centres unmarked) [22-OH-cholesterole, 22-hydroxycholesterol]: the “% GVBD” value in test [1] (setting [7]) is 41%; in test [1] (setting [8]), 62%; in test [1] (22-OH-cholesterole 3 μg/ml alone (no FSH), without fetal calf serum, HX-medium, 24 h) it was 26%; in test [1] (setting [9]), 72%; in test [1] (setting [10]), 39* %; in test [1] (setting [11]), 31* %. Besides, the results for the “% GVBD” value in test [1] (setting [12]) and in test [1] (setting [13]) were 19* % and 17* %, respectively. In addition, the “% PB (PB/GVBD)” value was 29% in test [1] (setting [7]); 25* % in test [1] (setting [8]); 26* % in test [1] (setting [9]); 14* % in test [1] (setting [10]); 11* % in test [1] (setting [11]); 28* % in test [1] (setting [12]). In test [1] (setting [13]), the “% PB (PB/GVBD)” value was 0* %. Besides, the Cumulus expansion result in test [1] (setting [7]) was “+++”. Moreover, in test [1] (tables 3 and 4, FSH 75 IU/L), the “cumulus expansion with 22-hydroxycholesterol and FSH compared with FSH alone (in words)” value is “occurs to similar degree”. In addition, the “effect on FSH induced resumption of meiosis (in words)” value in test [1] (tables 3 and 4, FSH 75 IU/L) is on record as “prevents oocytes from resuming meiosis in the presence of FSH”. For the same molecule, in test [2], the “effect on FF-MAS induced resumption of meiosis (in words)” value is recorded as “can prevent a FF-MAS induced resumption of meiosis”.

As for `CC(=O)N1CCN(c2ccc(OCC3COC(Cn4ccnc4)(c4ccc(Cl)cc4Cl)O3)cc2)CC1` (centres unmarked) [Ketoconazole, ketoconazole], the “% GVBD” value in test [3] (setting [14]) was 7%; in test [3] (setting [15]), 7%; in test [3] (setting [16]), 3%; in test [4] (setting [17]) it was 58%; in test [4] (setting [18]), 48* %; in test [4] (setting [19]), 35* %. In addition, the results for the “% GVBD” value in test [4] (setting [20]) and in test [4] (setting [21]) were 20* % and 21* %, respectively. For the same molecule, the “% PB (PB/GVBD)” value in test [3] (setting [14]) was determined as 57%; in test [3] (setting [15]), 8%; in test [3] (setting [16]) it was 0%; in test [4] (setting [17]) it was 33%; in test [4] (setting [18]) it was 30%; in test [4] (setting [19]), 25%. In addition, the results for the “% PB (PB/GVBD)” value in test [4] (setting [20]) and in test [4] (setting [21]) were 19* % and 17* %, respectively. Moreover, the results for the “effect on FSH induced resumption of meiosis (in words)” value in test [3] (ketoconazole 5-20 μM with FSH 75 IU/L) and in test [4] (ketoconazole with FSH 50 IU/L) were “able to prevent oocytes resuming meiosis” and “prevents oocytes from resuming meiosis”, respectively. Further, in test [4] (ketoconazole with FSH 50 IU/L), the “effect on PB formation (in words)” value is “dose-dependant inhibition of PB formation”.

AY-9944-A-7: in test [5], the “accumulation of FF-MAS (in words)” value is on record as “causes accumulation of FF-MAS” and the “resumption of meiosis (in words)” value is “dose-dependant induction of resumption of meiosis”.

Consider “EGF: epidermal growth factor (NSDSECPLSHDGYCLHDGVCMYIEALDKYACNCVVGYIGERCQYRDLKWWELR; UniProt P01133 971-1023, looked up)”, for which, in test [6], the “number of germinal vesicle oocytes reaching metaphase II (in words)” value was “enhanced”.
